The source of these data is patent publication US8329913B2, “Carbazole derivative, solvate thereof, or pharmaceutically acceptable salt thereof” (Zeria Pharmaceutical Co., Ltd., priority 2004, dated 2012).

For this assay, the target named is T1, human PPARγ (Homo sapiens, UniProt P37231).
T1 construct: 1.6 kb of fragment of the prepared plasmid pGEMT-hPPARg2 including human PPARγ gene; expressed in transfected cells; host or cells: CV-1 cells, transient transfection with pCI-hPPARg2, pCI-hRXRa and the reporter pGL3-PPRE3-TK
T1 sequence (P37231 1-505): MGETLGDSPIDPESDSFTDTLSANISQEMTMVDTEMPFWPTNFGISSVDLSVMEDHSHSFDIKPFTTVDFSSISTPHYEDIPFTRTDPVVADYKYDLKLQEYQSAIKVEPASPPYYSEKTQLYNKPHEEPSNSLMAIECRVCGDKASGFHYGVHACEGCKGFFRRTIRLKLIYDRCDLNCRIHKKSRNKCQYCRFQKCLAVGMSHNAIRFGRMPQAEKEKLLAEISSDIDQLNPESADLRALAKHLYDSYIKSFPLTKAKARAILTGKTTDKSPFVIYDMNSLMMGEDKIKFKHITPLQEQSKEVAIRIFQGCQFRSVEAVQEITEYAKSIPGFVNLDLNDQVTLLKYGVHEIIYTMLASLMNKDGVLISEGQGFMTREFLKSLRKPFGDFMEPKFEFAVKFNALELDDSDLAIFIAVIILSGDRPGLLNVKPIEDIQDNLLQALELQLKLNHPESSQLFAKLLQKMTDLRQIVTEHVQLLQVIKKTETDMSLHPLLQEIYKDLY
T1 sequence (P19793 1-462 partner): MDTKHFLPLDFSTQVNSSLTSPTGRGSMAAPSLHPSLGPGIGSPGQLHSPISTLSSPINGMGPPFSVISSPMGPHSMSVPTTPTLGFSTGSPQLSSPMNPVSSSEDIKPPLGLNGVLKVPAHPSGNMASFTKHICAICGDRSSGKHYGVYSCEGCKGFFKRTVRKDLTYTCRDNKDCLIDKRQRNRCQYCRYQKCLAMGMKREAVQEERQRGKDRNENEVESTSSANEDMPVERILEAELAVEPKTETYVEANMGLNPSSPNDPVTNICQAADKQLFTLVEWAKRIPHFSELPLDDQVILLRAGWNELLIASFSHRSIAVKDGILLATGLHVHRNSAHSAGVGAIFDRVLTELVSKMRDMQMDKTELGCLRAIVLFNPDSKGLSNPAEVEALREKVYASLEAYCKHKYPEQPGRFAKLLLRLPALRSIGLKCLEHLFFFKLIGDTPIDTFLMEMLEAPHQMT
The assay can be described thus: Human PPARγ antagonist assay (luciferase reporter in transfected CV-1 cells). The class given is cell-based. As to conditions: CV-1 cells expressing human PPARγ and RXRα with reporter plasmid; pioglitazone 1 μM as stimulant; 24 hours; read-out: Human PPARγ antagonist activities, Inhibition IC50. How it is done:
CV-1 cells (96 well plate), where human PPARγ and RXRα has expressed in the transient transfection of reporter plasmid (see reference 5a) were washed once with PBS (100 μL/well), and then supplemented with 100 μL/well […], as well as pioglitazone (not limited to pioglitazone shown as an example, but may be any PPARγ agonist) at a final concentration of 1 μM as a stimulant were added, and incubated in a 5% CO2 incubator at 37° C. for 24 hours. After removing the medium, the CV-1 cells were washed once with PBS (100 μL/well), and supplemented with 60 μL/well of 1× Passive Lysis Buffer (manufactured by Promega Corporation). The CV-1 cells were incubated at room temperature for 30 minutes, stirred, and then by using Dual-Luciferase Reporter Assay System (manufactured by Promega Corporation), luciferase activities of firefly and renilla were measured using 1420 ARVO Multilabel Counter (manufactured by Wallac Oy). Also, the same experiments as that described above were respectively carried out for the cases where only the above-mentioned stimulants (100 nM, 1 μM, 10 μM) were used, where only the above-mentioned test compounds were used, or where neither was used (nonsupplemented), and luciferase activities of firefly and renilla were measured. Values corrected by dividing the firefly luciferase activities by the renilla luciferase activities were calculated as specific activities and used for evaluations.
Human PPARγ2 antagonist activities of the test compounds were evaluated by using a percentage (inhibition) where the specific activity in case only […] was added is regarded as 0% and the specific activity in case the test compound and the stimulant were not added is regarded as 100%. Moreover, the concentration of the test compound indicating the inhibition rate of 50% was calculated as the IC50 value. Also, human PPARγ2 agonist activities of the test compounds were evaluated by using a percentage (activity) where the specific activity when nonsupplemented is regarded as 0% and the specific activity in case only 10 μM stimulant was added is regarded as 100%, from the specific activity in case only the test compound is used.
CV-1 cells were cultured in DMEM medium (manufactured by Invitrogen Corporation) including 10% fetal bovine serum (manufactured by Dainippon Pharmaceutical Co., Ltd.) in 225T-Flask (manufactured by Corning Costar). The cells were detached by 0.5 g/L trypsin-0.2 g/L EDTA (ethylene diamine tetra-acetic acid) (manufactured by Invitrogen Corporation), and then suspended in the DMEM medium including 10% fetal bovine serum to a cell concentration of 2×10^5 cells/mL. Thereafter, the cells were seeded into 96 well plate at 2×10^4 cells/0.1 mL/well, incubated in the 5% CO2 incubator at 37° C. overnight, and then the plasmids prepared by the above-mentioned reference 1a, reference 3a, and reference 4a were transfected into cells by using a lipofectamine reagent (manufactured by Invitrogen Corporation) according to the attached manual.
Namely, after CV-1 cells were cultured overnight, the cells were washed with PBS (100 μL/well). Thereafter the cells were incubated for 5 hours at 37° C./5% CO2 in the MEM medium (manufactured by Invitrogen Corporation) including 430 ng/mL of human PPARγ expression plasmid (pCI-hPPARg2) prepared by the reference 1a, 430 ng/mL of human RXRα expression plasmid (pCI-hRXRa) prepared by the reference 3a, and 140 ng/mL of the reporter plasmid (pGL3-PPRE3-TK) prepared by the reference 4a, 10 ng/mL of phRL-TK vector (manufactured by Promega Corporation) and 2 μL/mL of lipofectamine.
On to `COc1cc(Cn2c3ccccc3c3c(O[C@@H](C)C(=O)O)cccc32)ccc1OCc1nc(-c2ccccc2)oc1C` [Example 39, sodium (S)-2-{9-[3-methoxy-4-((5-methyl-2-phenyl-oxazole-4-yl)methoxy)-benzyl]-9H-carbazole-4-yloxy}propionate], for which the IC50 – broadly, the midpoint of a concentration-inhibition curve – came out at 617 nM.
As for `COc1cc(Cn2c3ccccc3c3c(O[C@H](C(=O)O)C(C)C)cccc32)ccc1OCc1nc(-c2ccccc2)oc1C` [Example 40, sodium (S)-2-{9-[3-methoxy-4-((5-methyl-2-phenyl-oxazole-4-yl)methoxy)-benzyl]-9H-carbazole-4-yloxy}-3-methyl-butyrate], the IC50 is 308 nM.
As to `CCC[C@H](Oc1cccc2c1c1ccccc1n2Cc1ccc(OCc2nc(-c3ccccc3)oc2C)c(OC)c1)C(=O)O` [Example 41, sodium (S)-2-{9-[3-methoxy-4-((5-methyl-2-phenyl-oxazole-4-yl)methoxy)-benzyl]-9H-carbazole-4-yloxy}valerate], the IC50 came out at 220 nM.
For `CC[C@@H](Oc1cccc2c1c1ccccc1n2Cc1ccc(OCc2nc(-c3ccccc3)oc2C)c(OC)c1)C(=O)O` [Example 42, sodium (R)-2-{9-[3-methoxy-4-((5-methyl-2-phenyl-oxazole-4-yl)methoxy)-benzyl]-9H-carbazole-4-yloxy}butyrate], the IC50 turned out to be 484 nM.
Take `COc1cc(Cn2c3ccccc3c3c(O[C@@H](C(=O)O)C(C)C)cccc32)ccc1OCc1nc(-c2ccccc2)oc1C` [Example 44, sodium (R)-2-{9-[3-methoxy-4-((5-methyl-2-phenyl-oxazole-4-yl)methoxy)-benzyl]-9H-carbazole-4-yloxy}-3-methyl-butyrate]: the IC50 turned out to be 462 nM.
Regarding `COc1cc(Cn2c3ccccc3c3c(OCc4ccc(C(=O)O)cc4)cccc32)ccc1OCc1nc(-c2ccccc2)oc1C` [Example 46, sodium 4-((9-(4-((5-methyl-2-phenyloxazole-4-yl)methoxy)-3-methoxybenzyl)-9H-carbazole-5-yloxy)methyl)benzoate], the concentration for half-maximal inhibition (IC50) came to 992 nM.
To `COc1cc(Cn2c3ccccc3c3c(Oc4ccccc4C(=O)O)cccc32)ccc1OCc1nc(-c2ccccc2)oc1C` [Example 47, sodium 2-{9-[3-methoxy-4-((5-methyl-2-phenyloxazole-4-yl)methoxy)-benzyl]-9H-carbazole-4-yloxy}benzoate] belongs 30 nM.
Regarding `COc1cc(Cn2c3ccccc3c3c(Oc4cccc(C(=O)O)c4)cccc32)ccc1OCc1nc(-c2ccccc2)oc1C` [Example 48, sodium 3-{9-[3-methoxy-4-((5-methyl-2-phenyloxazole-4-yl)methoxy)-benzyl]-9H-carbazole-4-yloxy}benzoate], the IC50 was 2490 nM.
As to `COc1cc(Cn2c3ccccc3c3c(Oc4ccc(C(=O)O)cc4)cccc32)ccc1OCc1nc(-c2ccccc2)oc1C` [Example 49, sodium 4-{9-[3-methoxy-4-((5-methyl-2-phenyloxazole-4-yl)methoxy)-benzyl]-9H-carbazole-4-yloxy}benzoate], the 50% inhibitory concentration (IC50) amounted to 1050 nM.
